From patent publication US20260083843A1, “IMMUNE CELLS TARGETING EPCAM AND MEDICAL USE THEREOF” (SUZHOU IMMUNOFOCO BIOTECHNOLOGY CO., LTD, priority 2022, published 2026)

Test system: MKN-45-luc
Experiment: Abdominal cavity metastasis model of gastric cancer
Assay type: in vivo, NCG mice
Conditions: single dose of 1.5 mg/kg i.p., Day 0; FIG. 3
Protocol: To study whether EpCAM-CAR-T (the amino acid sequence of the chimeric antigen receptor of EpCAM-CAR-T is set forth in SEQ ID NO: 16) can clear abdominal metastatic tumors of gastric cancer and whether the chemotherapeutic drug docetaxel can enhance the efficacy of CAR-T, we constructed an abdominal cavity metastasis model of gastric cancer based on a gastric cancer cell line MKN-45-luc. Modeling: human gastric cancer cells MKN-45-luc were cultured in an RPMI-1640 culture medium with 10% FBS in an incubator at 37° C. with 5% CO2. Before continuous cell culturing for ten generations, the cells were inoculated into the abdominal cavity of mice, about 1.5×10^6 MKN-45-luc cells were resuspended in PBS, and inoculated into NCG mice by intraperitoneal injection in a volume of […]. Grouping and administration: 7 days after the inoculation, the growth of tumor cells in the abdominal cavity was detected using a small animal in vivo imaging fluorometer. The mice were randomly grouped according to the body weight and tumor size (fluorescence intensity), with 5 animals in each group, for a total of 6 groups. The day of grouping was defined as day 0.

With `CC(=O)O[C@@]12CO[C@@H]1C[C@H](O)[C@@]1(C)C(=O)[C@H](O)C3=C(C)[C@@H](OC(=O)[C@H](O)[C@@H](NC(=O)OC(C)(C)C)c4ccccc4)C[C@@](O)([C@@H](OC(=O)c4ccccc4)[C@H]21)C3(C)C` [docetaxel] the efficacy was “did not produce significant efficacy”.
